Data from the NIST ThermoML archive (doi:10.1021/je700022b).
Numbers after ± are expanded uncertainties.

Details: Liquid; for viscosity: Falling or rolling sphere viscometry; for mass density: Constant-volume piezometry

CCCCn1cc[n+](C)c1.F[P-](F)(F)(F)(F)F [1-butyl-3-methylimidazolium hexafluorophosphate]
viscosity (293.15 K, 100 kPa): 395 ± 42 mPa·s | mass density (293.15 K, 15000 kPa): 1377 ± 6 kg/m3 | viscosity (293.15 K, 15000 kPa): 468 ± 43 mPa·s | mass density (293.15 K, 20000 kPa): 1379 ± 6 kg/m3 | viscosity (293.15 K, 20000 kPa): 504 ± 47 mPa·s | mass density (313.15 K, 15000 kPa): 1362 ± 6 kg/m3 | viscosity (313.15 K, 15000 kPa): 140 ± 10 mPa·s | mass density (313.15 K, 20000 kPa): 1364 ± 6 kg/m3 | viscosity (313.15 K, 20000 kPa): 151 ± 11 mPa·s | mass density (333.15 K, 15000 kPa): 1346 ± 5 kg/m3 | viscosity (333.15 K, 15000 kPa): 61 ± 3.7 mPa·s | mass density (333.15 K, 20000 kPa): 1349 ± 5 kg/m3 | viscosity (333.15 K, 20000 kPa): 63.2 ± 3.9 mPa·s | mass density (353.15 K, 15000 kPa): 1330 ± 5 kg/m3 | viscosity (353.15 K, 15000 kPa): 29.3 ± 1.8 mPa·s | mass density (353.15 K, 20000 kPa): 1332 ± 5 kg/m3 | viscosity (353.15 K, 20000 kPa): 30.5 ± 1.9 mPa·s
